In patent US9980943B2, “Methods of treating muscular dystrophy” (BOARD OF REGENTS OF THE NEVADA SYSTEM OF HIGHER EDUCATION, …, priority 2013, dated 2018):

How the values were obtained:
Assay type in all cases: cell-based, mouse
[1] = test system: α7 integrin (LacZ reporter in α7βgal+/− myoblasts); experiment: Myoblast α7+/LacZ integrin FDG assay (Burkin assay in myoblasts, 96-well); details: α7+/LacZ myoblasts, 96-well
[2] = test system: α7 integrin (LacZ reporter in α7+/LacZ myotubes); experiment: Myotube α7 integrin FDG assay (Burkin assay in myotubes, 96-well); details: for dose-response curve in myotubes: hits of Prestwick/Microsource screens
[3] = test system: β-galactosidase in CMV-LacZ C2C12 myotubes; experiment: CMV-LacZ secondary screen in C2C12 myotubes (β-Gal stabilizing assay); details: C2C12 CMV-LacZ myotubes, fold relative to DMSO
Text: In order to determine compounds that acted to stabilize β-gal in myogenic cells, a CMV-LacZ C2C12 cell line was used in a secondary screen. The EGFP gene from the pEGFP (Clontech) vector was replaced by LACZ PCR product with digests of the vector/PCR product performed using EcoRI (NEB) and NotI (NEB) and ligated using T4 DNA Ligase (NEB) following standard procedures to produce the CMV-LACZ vector. The LACZ gene was generated by PCR from the pBK-RSV (Stratagene) vector using primers LACZ EcoRI F- and LACZ NotI R-. The CMV-LACZ vector was then digested with AfIII (NEB) to linearize the construct, which was then transfected in C2C12 myoblasts using Lipofectamine 2000 (Invitrogen) following the manufacturer's instructions. […] Clonal lines were selected and screened for βgal levels using the myoblast FDG assay.
The assays were used the original 96-well format and new dose-response curves for myoblasts (N=3-6 replicates for each data point), myotubes (N=3-6 replicates for data point), and CMV-LacZ secondary assay (N=2 replicates for each data point) using concentrations of 0.5 μM, 1 μM, 5 μM, 10 μM, 20 μM, and 40 μM (Tables 9-16).

SMILES	CMV-LACZ in Myotubes, signal relative to DMSO ([3]; 5 uM)	CMV-LACZ in Myotubes, signal relative to DMSO ([3]; 10 uM)	CMV-LACZ in Myotubes, signal relative to DMSO ([3]; 20 uM)	CMV-LACZ in Myotubes, signal relative to DMSO ([3]; 40 uM)	Burkin Assay in Myoblasts, signal relative to DMSO ([1]; 0.5 uM)	Burkin Assay in Myoblasts, signal relative to DMSO ([1]; 1 uM)	Burkin Assay in Myoblasts, signal relative to DMSO ([1]; 5 uM)	Burkin Assay in Myoblasts, signal relative to DMSO ([1]; 10 uM)	Burkin Assay in Myoblasts, signal relative to DMSO ([1]; 20 uM)	Burkin Assay in Myoblasts, signal relative to DMSO ([1]; 40 uM)	Burkin Assay in Myotubes, α7 integrin LacZ reporter signal relative to DMSO ([2]; 0.5 uM)	Burkin Assay in Myotubes, α7 integrin LacZ reporter signal relative to DMSO ([2]; 1 uM)	Burkin Assay in Myotubes, α7 integrin LacZ reporter signal relative to DMSO ([2]; 5 uM)	Burkin Assay in Myotubes, α7 integrin LacZ reporter signal relative to DMSO ([2]; 10 uM)	Burkin Assay in Myotubes, α7 integrin LacZ reporter signal relative to DMSO ([2]; 20 uM)	Burkin Assay in Myotubes, α7 integrin LacZ reporter signal relative to DMSO ([2]; 40 uM)	further results
O=Cc1cn(Cc2ccc(F)cc2Cl)c2ccccc12 [MLS000676974-01]	1.077	0.4574	1.083	0.46													Burkin Assay in Myoblasts, value relative to DMSO ([1]; 0.5 uM): 1.105; Burkin Assay in Myoblasts, value relative to DMSO ([1]; 1 uM): 1.137; Burkin Assay in Myoblasts, value relative to DMSO ([1]; 5 uM): 0.99; Burkin Assay in Myoblasts, value relative to DMSO ([1]; 10 uM): 1.099; Burkin Assay in Myoblasts, value relative to DMSO ([1]; 20 uM): 0.6673; Burkin Assay in Myoblasts, value relative to DMSO ([1]; 40 uM): 0.5184; Burkin Assay in Myotubes (signal relative to DMSO) ([2]; 0.5 uM): 0.9171; Burkin Assay in Myotubes (signal relative to DMSO) ([2]; 1 uM): 0.9021; Burkin Assay in Myotubes (signal relative to DMSO) ([2]; 5 uM): 0.7009; Burkin Assay in Myotubes (signal relative to DMSO) ([2]; 10 uM): 0.5994; Burkin Assay in Myotubes (signal relative to DMSO) ([2]; 20 uM): 0.9758; Burkin Assay in Myotubes (signal relative to DMSO) ([2]; 40 uM): 0.5447
COc1ccc(Cl)cc1NC(=O)CC(=O)Nc1cc(Cl)ccc1OC [MLS001166704-01]	1.088	1.1553	1.4595	1.0685	1.109	1.165	0.8499	0.7652	0.5747	0.4394	1.166	1.268	0.8936	1.065	0.7918	0.81	
CCOc1ccc(-n2c(C)c(C(=O)O)c3cc(OC)ccc32)cc1 [MLS001194551-01]	0.8273	0.9459	1.047	0.7809													Burkin Assay in Myoblasts, value relative to DMSO ([1]; 0.5 uM): 1.096; Burkin Assay in Myoblasts, value relative to DMSO ([1]; 1 uM): 1.205; Burkin Assay in Myoblasts, value relative to DMSO ([1]; 5 uM): 1.115; Burkin Assay in Myoblasts, value relative to DMSO ([1]; 10 uM): 1.297; Burkin Assay in Myoblasts, value relative to DMSO ([1]; 20 uM): 1.176; Burkin Assay in Myoblasts, value relative to DMSO ([1]; 40 uM): 1.392; Burkin Assay in Myotubes (signal relative to DMSO) ([2]; 0.5 uM): 1.0169; Burkin Assay in Myotubes (signal relative to DMSO) ([2]; 1 uM): 1.01; Burkin Assay in Myotubes (signal relative to DMSO) ([2]; 5 uM): 1.043; Burkin Assay in Myotubes (signal relative to DMSO) ([2]; 10 uM): 1.094; Burkin Assay in Myotubes (signal relative to DMSO) ([2]; 20 uM): 1.209; Burkin Assay in Myotubes (signal relative to DMSO) ([2]; 40 uM): 1.281
Cc1nc2c(cnn2-c2ccccc2)c(=O)n1/N=C/c1ccccc1 [MLS000860538-01]	1.001	0.9613	1.017	0.9667	1.02	1.033	1.078	1.115	0.958	0.9783	0.985	1.102	1.319	1.412	0.9635	0.9403	
O=C(N/N=C/c1cn[nH]c1-c1ccc(F)cc1)c1ccncc1 [MLS000698686-01]	0.8364	0.9727	0.8864	0.8864													Burkin Assay in Myoblasts, value relative to DMSO ([1]; 0.5 uM): 1.037; Burkin Assay in Myoblasts, value relative to DMSO ([1]; 1 uM): 1.018; Burkin Assay in Myoblasts, value relative to DMSO ([1]; 5 uM): 1.054; Burkin Assay in Myoblasts, value relative to DMSO ([1]; 10 uM): 1.075; Burkin Assay in Myoblasts, value relative to DMSO ([1]; 20 uM): 0.8456; Burkin Assay in Myoblasts, value relative to DMSO ([1]; 40 uM): 0.8252; Burkin Assay in Myotubes (signal relative to DMSO) ([2]; 0.5 uM): 0.8838; Burkin Assay in Myotubes (signal relative to DMSO) ([2]; 1 uM): 0.6159; Burkin Assay in Myotubes (signal relative to DMSO) ([2]; 5 uM): 1.013; Burkin Assay in Myotubes (signal relative to DMSO) ([2]; 10 uM): 0.966; Burkin Assay in Myotubes (signal relative to DMSO) ([2]; 20 uM): 0.6986; Burkin Assay in Myotubes (signal relative to DMSO) ([2]; 40 uM): 0.9722
Cc1ccc(C(=O)C(C)OC(=O)CNC(=O)c2ccc(Br)o2)cc1 (centres unmarked) [MLS001160885-01]	1.167	0.9009	0.9095	0.8319	1.05	0.9356	0.9402	0.9147	1.021	0.7914	1	0.9569	1.108	1.146	1.018	0.92	
O=C(Nc1ccc(Oc2cccnc2)cc1)c1ccccc1Cl [MLS000574647-01]	0.9166	0.9364	0.962	1.0095	1.081	1.027	0.9641	0.9515	0.8985	0.8343	0.935	0.8646	1.007	0.8596	1.006	0.8219	
c1ccc(-c2ccccn2)nc1 [2,2-Dipyridyl, reference compound]																	dose-response curve in myotubes [2]: positive dose-response curves
CCCC(=O)[O-].[Na+] [sodium butyrate, reference compound]																	β-galactosidase levels ([2]; treatments of ~1.5 mM, preliminary screens): increase β-galactosidase levels
Cc1cc(C2CCCCC2)n(O)c(=O)c1 [Ciclopirox ethanolamine, reference compound]																	dose-response curve in myotubes [2]: positive dose-response curves
CC(C)CCC[C@@H](C)[C@H]1CC[C@H]2[C@@H]3CC(=O)[C@H]4C[C@@H](O)CC[C@]4(C)[C@H]3CC[C@]12C [5alpha-cholestan-3β-ol-6-one, reference compound]																	dose-response curve in myotubes [2]: positive dose-response curve
